Experimental data taken from PubChem BioAssay AID1745844 (Carcinogenic Potency Database (CPDB), 2022).
Active and inactive are the calls of the source. The rule behind the calls is not given here.

Test system: rodent lifetime carcinogenesis bioassay, tumor incidence TD50
Test: carcinogenic potency in animals, long-term in vivo studies, CPDB compilation (AID 1745844)

SMILES: ClC(Cl)=C(Cl)Cl
- TD50 (mouse, strain B6C3F1, females, by gavage, site: any site (literature study), lesion: several types, types named in the paper, dosed 78 weeks, study length 90 weeks): 98.1 mg/kg/day
- TD50 (mouse, strain B6C3F1, females, by gavage, site: liver, lesion: hepatocellular adenoma + hepatocellular carcinoma + neoplastic nodule, dosed 78 weeks, study length 90 weeks): 75.6 mg/kg/day
- TD50 (mouse, strain B6C3F1, females, by gavage, site: liver, lesion: hepatocellular carcinoma, dosed 78 weeks, study length 90 weeks): 75.6 mg/kg/day
- TD50 (mouse, strain B6C3F1, females, by gavage, site: lung, lesion: alveolar/bronchiolar adenoma + alveolar/bronchiolar carcinoma, dosed 78 weeks, study length 90 weeks): 2950 mg/kg/day
- TD50 (mouse, strain B6C3F1, females, inhaled, site: any site (literature study), lesion: several types, types named in the paper, dosed 103 weeks, study length 104 weeks): 211 mg/kg/day
- TD50 (mouse, strain B6C3F1, females, inhaled, site: liver, lesion: hepatocellular adenoma + hepatocellular carcinoma + neoplastic nodule, dosed 103 weeks, study length 104 weeks): 188 mg/kg/day
- TD50 (mouse, strain B6C3F1, females, inhaled, site: liver, lesion: hepatocellular adenoma + hepatocellular carcinoma, dosed 103 weeks, study length 104 weeks): 188 mg/kg/day
- TD50 (mouse, strain B6C3F1, females, inhaled, site: liver, lesion: hepatocellular carcinoma, dosed 103 weeks, study length 104 weeks): 200 mg/kg/day
- TD50 (mouse, strain B6C3F1, males, by gavage, site: any site (literature study), lesion: several types, types named in the paper, dosed 78 weeks, study length 90 weeks): 160 mg/kg/day
- TD50 (mouse, strain B6C3F1, males, by gavage, site: liver, lesion: hepatocellular adenoma + hepatocellular carcinoma + neoplastic nodule, dosed 78 weeks, study length 90 weeks): 123 mg/kg/day
- TD50 (mouse, strain B6C3F1, males, by gavage, site: liver, lesion: hepatocellular carcinoma, dosed 78 weeks, study length 90 weeks): 123 mg/kg/day
- TD50 (mouse, strain B6C3F1, males, inhaled, site: any site (literature study), lesion: several types, types named in the paper, dosed 103 weeks, study length 104 weeks): 225 mg/kg/day
- TD50 (mouse, strain B6C3F1, males, inhaled, site: liver, lesion: hepatocellular adenoma + hepatocellular carcinoma + neoplastic nodule, dosed 103 weeks, study length 104 weeks): 190 mg/kg/day
- TD50 (mouse, strain B6C3F1, males, inhaled, site: liver, lesion: hepatocellular adenoma + hepatocellular carcinoma, dosed 103 weeks, study length 104 weeks): 190 mg/kg/day
- TD50 (mouse, strain B6C3F1, males, inhaled, site: liver, lesion: hepatocellular adenoma, dosed 103 weeks, study length 104 weeks): 668 mg/kg/day
- TD50 (mouse, strain B6C3F1, males, inhaled, site: liver, lesion: hepatocellular carcinoma, dosed 103 weeks, study length 104 weeks): 162 mg/kg/day
- TD50 (mouse, strain B6C3F1, males, inhaled, site: lung, lesion: alveolar/bronchiolar adenoma + alveolar/bronchiolar carcinoma, dosed 103 weeks, study length 104 weeks): 6050 mg/kg/day
- TD50 (mouse, strain B6C3F1, males, inhaled, site: mesenteric lymph node + multiple organs + spleen + subcutaneous tissue, lesion: malignant lymphoma, NOS, dosed 103 weeks, study length 104 weeks): 681 mg/kg/day
- TD50 (mouse, strain Crj:BDF1, females, inhaled, site: liver, lesion: hepatocellular adenoma, dosed 104 weeks, study length 104 weeks): 560 mg/kg/day
- TD50 (mouse, strain Crj:BDF1, females, inhaled, site: liver, lesion: hepatocellular carcinoma, dosed 104 weeks, study length 104 weeks): 1420 mg/kg/day
- TD50 (mouse, strain Crj:BDF1, females, inhaled, site: liver, lesion: several types, types named in the paper, dosed 104 weeks, study length 104 weeks): 396 mg/kg/day
- TD50 (mouse, strain Crj:BDF1, males, inhaled, site: Harderian gland, lesion: adenoma, dosed 104 weeks, study length 104 weeks): 2330 mg/kg/day
- TD50 (mouse, strain Crj:BDF1, males, inhaled, site: liver, lesion: hepatocellular adenoma, dosed 104 weeks, study length 104 weeks): 602 mg/kg/day
- TD50 (mouse, strain Crj:BDF1, males, inhaled, site: liver, lesion: hepatocellular carcinoma, dosed 104 weeks, study length 104 weeks): 555 mg/kg/day
- TD50 (mouse, strain Crj:BDF1, males, inhaled, site: liver, lesion: several types, types named in the paper, dosed 104 weeks, study length 104 weeks): 257 mg/kg/day
- TD50 (rat, strain F344/DuCrj, females, inhaled, site: spleen, lesion: mononuclear-cell leukemia, dosed 104 weeks, study length 104 weeks): 1080 mg/kg/day
- TD50 (rat, strain F344/DuCrj, males, inhaled, site: liver, lesion: hepatocellular adenoma, dosed 104 weeks, study length 104 weeks): 28300 mg/kg/day
- TD50 (rat, strain F344/DuCrj, males, inhaled, site: spleen, lesion: mononuclear-cell leukemia, dosed 104 weeks, study length 104 weeks): 257 mg/kg/day
- TD50 (rat, strain Fischer 344, females, inhaled, site: any site (literature study), lesion: several types, types named in the paper, dosed 103 weeks, study length 104 weeks): 869 mg/kg/day
- TD50 (rat, strain Fischer 344, females, inhaled, site: multiple organs + spleen, lesion: mononuclear-cell leukemia, dosed 103 weeks, study length 104 weeks): 287 mg/kg/day
- TD50 (rat, strain Fischer 344, males, inhaled, site: any site (literature study), lesion: several types, types named in the paper, dosed 103 weeks, study length 104 weeks): 77.7 mg/kg/day
- TD50 (rat, strain Fischer 344, males, inhaled, site: kidney + liver + multiple organs + spleen, lesion: tubular-cell adenoma + tubular-cell adenocarcinoma + mononuclear-cell leukemia, dosed 103 weeks, study length 104 weeks): 90.8 mg/kg/day
- TD50 (rat, strain Fischer 344, males, inhaled, site: kidney, lesion: tubular-cell adenoma + tubular-cell adenocarcinoma, dosed 103 weeks, study length 104 weeks): 504 mg/kg/day
- TD50 (rat, strain Fischer 344, males, inhaled, site: liver + multiple organs + spleen, lesion: mononuclear-cell leukemia, dosed 103 weeks, study length 104 weeks): 101 mg/kg/day
- TD50 (rat, strain Fischer 344, males, inhaled, site: liver, lesion: hepatocellular adenoma + hepatocellular carcinoma + neoplastic nodule, dosed 103 weeks, study length 104 weeks): 368 mg/kg/day
- TD50 (rat, strain Fischer 344, males, inhaled, site: testis, lesion: interstitial-cell tumor, dosed 103 weeks, study length 104 weeks): 68.6 mg/kg/day
- TD50 (rat, strain Osborne-Mendel, females, by gavage, site: any site (literature study), lesion: several types, types named in the paper, dosed 78 weeks, study length 110 weeks): 1710 mg/kg/day
- TD50 (rat, strain Osborne-Mendel, males, by gavage, site: any site (literature study), lesion: several types, types named in the paper, dosed 78 weeks, study length 112 weeks): 3020 mg/kg/day

SMILES: CCOC(=O)C(C)(C)Oc1ccc(Cl)cc1
- TD50 (mouse, strain AP Alderly Park, females, in feed, site: liver, lesion: hepatocellular adenoma, dosed 78 weeks, study length 78 weeks): 1480 mg/kg/day (inactive)
- TD50 (mouse, strain AP Alderly Park, males, in feed, site: liver, lesion: hepatocellular adenoma, dosed 78 weeks, study length 78 weeks): 313 mg/kg/day (inactive)
- TD50 (mouse, strain AP Alderly Park, males, in feed, site: liver, lesion: hepatocellular carcinoma, dosed 78 weeks, study length 78 weeks): 9710 mg/kg/day (inactive)
- TD50 (mouse, strain C57BL/10J, females, in feed, site: liver, lesion: hepatocellular adenoma, dosed 78 weeks, study length 78 weeks): 14700 mg/kg/day (inactive)
- carcinogen call (mouse, strain C57BL/10J, females, in feed, site: lung, lesion: one or several types, types not named, dosed 78 weeks, study length 78 weeks): negative (inactive)
- TD50 (mouse, strain C57BL/10J, males, in feed, site: liver, lesion: hepatocellular adenoma, dosed 78 weeks, study length 78 weeks): 3640 mg/kg/day (inactive)
- carcinogen call (mouse, strain C57BL/10J, males, in feed, site: lung, lesion: one or several types, types not named, dosed 78 weeks, study length 78 weeks): negative (inactive)
- TD50 (rat, strain Fischer 344, males, in feed, site: liver, lesion: hepatocellular carcinoma, dosed 121 weeks, study length 121 weeks): 169 mg/kg/day
- TD50 (rat, strain Fischer 344, males, in feed, site: pancreas, lesion: acinar-cell carcinoma, dosed 121 weeks, study length 121 weeks): 1300 mg/kg/day

SMILES: S=C(SSSSSSC(=S)N1CCCCC1)N1CCCCC1
- TD50 (mouse, strain B6AKF1, females, oral dosing, site: any site (literature study), lesion: several types, types named in the paper, dosed 76 weeks, study length 76 weeks): 120 mg/kg/day (inactive)
- carcinogen call (mouse, strain B6AKF1, females, oral dosing, site: liver, lesion: hepatoma, dosed 76 weeks, study length 76 weeks): negative (inactive)
- carcinogen call (mouse, strain B6AKF1, females, oral dosing, site: lung, lesion: adenoma, dosed 76 weeks, study length 76 weeks): negative (inactive)
- carcinogen call (mouse, strain B6AKF1, males, oral dosing, site: any site (literature study), lesion: several types, types named in the paper, dosed 76 weeks, study length 76 weeks): negative (inactive)
- carcinogen call (mouse, strain B6AKF1, males, oral dosing, site: liver, lesion: hepatoma, dosed 76 weeks, study length 76 weeks): negative (inactive)
- carcinogen call (mouse, strain B6AKF1, males, oral dosing, site: lung, lesion: adenoma, dosed 76 weeks, study length 76 weeks): negative (inactive)
- TD50 (mouse, strain B6C3F1, females, oral dosing, site: any site (literature study), lesion: several types, types named in the paper, dosed 76 weeks, study length 76 weeks): 83.1 mg/kg/day (inactive)
- carcinogen call (mouse, strain B6C3F1, females, oral dosing, site: liver, lesion: hepatoma, dosed 76 weeks, study length 76 weeks): negative (inactive)
- TD50 (mouse, strain B6C3F1, females, oral dosing, site: lung, lesion: adenoma, dosed 76 weeks, study length 76 weeks): 83.1 mg/kg/day (inactive)
- TD50 (mouse, strain B6C3F1, males, oral dosing, site: any site (literature study), lesion: several types, types named in the paper, dosed 76 weeks, study length 76 weeks): 52.5 mg/kg/day (inactive)
- TD50 (mouse, strain B6C3F1, males, oral dosing, site: liver, lesion: hepatoma, dosed 76 weeks, study length 76 weeks): 113 mg/kg/day (inactive)
- TD50 (mouse, strain B6C3F1, males, oral dosing, site: lung, lesion: adenoma, dosed 76 weeks, study length 76 weeks): 113 mg/kg/day (inactive)
